Patent publication US11723910B1, “Compositions and methods for modulating the endothelial barrier” (University of South Florida, priority 2019, dated 2023)

What was measured:
[1] = system: human umbilical vein endothelial cell (HUVEC) monolayers; experiment: Transendothelial electrical resistance (TER, ECIS) of HUVEC monolayers; type: cell-based; details: mean TER at 70 h vs non-targeting RNA
Protocol: (§1) HUVEC and media were obtained from LifeLine cell technology, PRE-084 from Tocris Biotechne, and CCCP from Abcam. TER was determined with an Electrical Cell-Substrate Impedance Sensor (ECIS; Applied Biophysics). For transfection, 200 nM σ1 siRNA (SEQ ID NO: 2: GGCUUGAGCUCACCACCUA) or control non-targeting RNA (SEQ ID NO: 3: UGGUUUACAUGUUUUCCUA) purchased from Dharmacon was introduced with the Nucleofector II device (Lonza). Cell culture procedures, TER recordings, and protein isolation and transfection protocols have been previously described. Western blotting was done using WES (Protein Simple). Rabbit anti σ1 was purchased from Novus Biologicals NBP1-82479 and mouse anti (β-actin was from cell signaling #3700. Both primaries were used at 1:50 dilution. Seahorse xfp analyzer was used for glycolytic rate and ATP rate with assay kits (Agilent) according to manufacturer's instructions using 40.000 cells/well. Calculation of assay parameters was done using Wave software with its built-in report generators and statistical analysis was done using Prism 7.

sigma-1 receptor (σ1) = experiment: Western blot of σ1 expression after siRNA knockdown in HUVEC; type: cell-based, human; details: 200 nM σ1 siRNA
Protocol: (§2) Because ATP depletion has been reported to disrupt the endothelial barrier (Unno N, et al. (1996) Hyperpermeability and ATP depletion induced by chronic hypoxia or glycolytic inhibition in Caco-2BBe monolayers. Am J Physiol 270(6 Pt 1):G1010-1021), assessment was performed to determine whether carbonyl cyanide m-chlorophenyl hydrazine (CCCP) induced mitochondrial insult causes barrier disruption and whether the barrier-enhancing properties of PRE-084 can counteract this effect. […] To further validate the contribution of σ1 to endothelial barrier function, siRNA was used to selectively reduce σ1 expression in HUVEC.
(§3) HUVEC and media were obtained from LifeLine cell technology, PRE-084 from Tocris Biotechne, and CCCP from Abcam. TER was determined with an Electrical Cell-Substrate Impedance Sensor (ECIS; Applied Biophysics). For transfection, 200 nM σ1 siRNA (SEQ ID NO: 2: […]) or control non-targeting RNA (SEQ ID NO: 3: […]) purchased from Dharmacon was introduced with the Nucleofector II device (Lonza). Cell culture procedures, TER recordings, and protein isolation and transfection protocols have been previously described. Western blotting was done using WES (Protein Simple). […]

[2] = system: HUVEC monolayers treated with CCCP; experiment: CCCP-induced barrier disruption (TER) in HUVEC; type: cell-based, human; details: 10 μM CCCP
Protocol: as §2, §3

HUVEC = experiment: Seahorse glycolytic rate assay in HUVEC; type: cell-based, human; details: Afobazole 300 μM 3 hours prior to the assay vs vehicle
Protocol: FIGS. 2A and 2B show glycolytic PER (glycoPER) and oxygen consumption rate (OCR) obtained from glycolytic rate assay of cells treated with 100 μM PRE-084 or vehicle for 3 hours. […] FIGS. 2D-2H show assay parameters obtained from the glycolytic rate assay. FIGS. 2I-2K show assay parameters from ATP rate assay. *P<0.05.
as §1

σ1 siRNA: σ1 siRNA (SEQ ID NO: 2: GGCUUGAGCUCACCACCUA) purchased from Dharmacon (listed as RNA, chemistry not given here)
TER in σ1 siRNA-treated cells compared to control [1]: significant decreases | decrease in σ1 protein compared to controls (sigma-1 receptor (σ1); 48-h post-transfection): 47% | decrease in σ1 protein compared to controls (sigma-1 receptor (σ1); 70-h post-transfection): 74%

carbonyl cyanide m-chlorophenyl hydrazine [CCCP]
transendothelial electrical resistance (TER) after CCCP [2]: significantly lowered

CCOc1ccc2nc(SCCN3CCOCC3)[nH]c2c1 [Afobazole]
glycolytic proton efflux rate (HUVEC): enhances | oxygen consumption rate (HUVEC): lowers
